In patent US20180289666A1, “FLAVONOLIGNANS FOR TREATMENT OF AUTOIMMUNE INFLAMMATORY DISEASES” (Macau University of Science and Technology, priority 2017, published 2018):

Experiments:
AIA rats [1] = assay: Assessment of liver abnormality and lipid profile in AIA model; format: in vivo, Sprague-Dawley (SD) rats
Procedure: Serum ALT, AST, ALP, GGT and total bilirubin were measured by automatic biochemical analyzer (Toshiba Corporation, Tokyo, Japan). Lipids profile including TG, TC, HDL-C, LDL-C/vLDL-C and free fatty acids were measured in the serum. After animals were sacrificed, tissues of liver were fixed in 10% formalin solution, cleared in xylene, embedded in paraffin blocks from which 5 micron-thick sections were obtained. Sections were stained with H&E dye and examined for pathological changes under light microscope by a pathologist blind to the specimens.

AIA rats [2] = conditions: AIA rats; MTX alone; versus vehicle-treated AIA rats
[3] = system: key enzymes involved in lipid metabolism in liver; assay: Real-time PCR and Western blot of lipid metabolism enzymes in liver of AIA rats; format: in vivo, Sprague-Dawley (SD) rats; conditions: AIA rats liver
Procedure: Total RNA was isolated from the frozen liver of the AIA model using TRIzol® Reagent (Life technology, USA). mRNA was purified by binding to poly(dT) magnetic beads using Dynabeads® mRNA DIRECT™ Kit (Life technology, Norway) and reverse transcribed using SuperScript® III reverse transcriptase (Invitrogen, California, USA) as described by the manufacturer. Quantitative real-time PCR was performed using SYBR Green (Sigma-Aldrich, Louis, USA) on the ViiA™ 7 Real-Time PCR System (Applied Biosystems, FosterCity, USA). Quantitative RT-PCR analysis was performed using SYBR Green reagents and ViiA™ 7 Real-Time PCR System. Gene expression levels were calculated from cycle threshold (Ct) values and normalized with control gene GAPDH.
Liver tissue homogenates of AIA and MCD animal models were lysed in RIPA buffer (50 mM pH 7.4 Tris, 150 mM NaCl, 1% Triton X-100, 1% sodium deoxycholate, 0.1% SDS, sodium orthovanadate, sodium fluoride and EDTA) containing protease inhibitor cocktails (Roche Life Science, USA). Protein concentration was determined using the BCA protein assay kit (BIO-RAD, USA). Equal amounts of total protein were resolved using SDS-PAGE and transferred onto PVDF membranes (Millipore, Darmstadt, Germany). After incubation in a blocking solution containing with 5% (w/v) skim milk (Nestle Carnation, New Zealand) in TBST buffer (10 mM tris-buffered saline and 0.1% Tween20) for 1 h at room temperature and incubated with primary antibodies overnight at 4° C. The membranes were washed three times with 1×TBST solutions and incubated with the appropriate secondary antibodies at room temperature for 45 min, and subsequently visualized with an enhanced chemiluminescence detection kit (SuperSignal™ West Pico Chemiluminescent Substrate, Thermo Scientific, USA). β-actin was used as the loading control for the experimental data analysis.

AIA rats [4] = assay: Radiological and histopathological examination of hind paws / ankle joints of AIA rats; format: in vivo, Sprague-Dawley (SD) rats
Procedure: Disease severity and progression were evaluated by measurements of both hind paw volumes with a plethysmometer chamber (Yiyan technology, Jinan, China) and body weight with a 0.1 g precision balance (Sartorius AG, Göttingen, Germany) every two or three days after arthritis induction. For evaluation the arthritic scoring, the lesions of four paws of each rat (i.e., the arthritic signs) were graded by two separate investigators with a semi-quantitative scale: 0 (normal), 4-8 (mild changes), 8-12 (moderate changes), and 12-16 (severe changes) (van Eden W., et. al., J. E. Coligan, Editor. 2001, John Wiley: New York. p. 1-11). Erythrocyte sedimentation rate (ESR) was determined with ICSH (International Council for Standardization in Hematology) selected method with little modifications at day 42. Briefly, 120 μl of blood sample was taken directly and put into 30 μl of 0.109 mol/L sodium citrate, mixed well, and then transferred into a 1.0 mm×100 mm capillary tube (West China Medical University, ChengDu, China). The tubes were held obliquely at an angle of […] and the erythrocyte sedimentation rate was recorded at 15 min. The cytokines levels including IL-1β, TNF-α, IL-17, IL-33, MMP-9, TIMP-1 and PGE2 in serum were measured using commercially available ELISA kits according to the manufacturers instructions. At the end of the experiments, rat knee images were measured (mean of three readings per knee, Meinaite digital calliper, ShangHai, China) using a IVIS Lumina XRMS Series (PerkinElmer, America) (Esser, R. E., et al., Arthritis Rheum, 1995, 38(1): p. 129-38).
For histopathological assessment, arthritic paws were collected on day 42 after X-ray check, fixed with 10% phosphate buffered saline (PBS) buffered formalin, and decalcified for 3 days in formic acid. Sections from paraffin-embedded tissue were stained with hematoxylin and eosin (H&E). The obtained plasma was stored in −70° C. for metabolomic studies. The relative organ weight ratios (such as liver index, spleen index, kidney index, lung index) were calculated by dividing the weight of each organ with the body weight.

AIA rats [5] = assay: Plasma metabolomics by LC-MS/MS in AIA rats; format: in vivo, Sprague-Dawley (SD) rats
Procedure: The plasma sample (200 μL) was thawed on ice for 5 min prior to sample preparation and was mixed with 200 μL of 10 mM N-ethylmaleimide (NEM) in PBS buffer solution and 1000 μL of methanol containing internal standard (I.S.) Phe-d5 in 10 ng/ml. This mixture was incubated at −20° C. for 20 min, and then centrifuged at 12000 rpm for 10 min at 4° C. The supernatant was completely dried under nitrogen flow (Pressure Blowing Concentrator, Tokyo Rikakika, Tokyo, Japan) and reconstituted with distilled water.
LC-MS/MS analysis was performed on A Waters ACQUITY UPLC coupled with a 4000 Q-TRAP mass spectrometer. Chromatographic separation was carried on a Waters X Bridge™ BEH C18 analytical column (2.5 μm, 3.0×100 mm; Waters, Torrance, Calif.) with a mobile phase composed of 0.1% formic acid water (solvent A) and methanol (solvent B) which was running in a gradient program: 0-3.0 min (0%-1% B); 3.0-10.0 min (1-3% B); 10.0-14.0 min (3-50% B); 14.0-18.0 min (50-95% B); 18.0-22.0 min (95-0% B); followed by a 3-min re-equilibration step. The injection volume was 10 μl at 4° C. and flow rate was 0.6 ml/min. Electrospray (ESI) source were used in both positive and negative ion mode. […]
The normalized data were exported and further processed by PCA and PLS-DA using a multivariate analysis package SIMCA-P software (Umea, Sweden). Model quality was evaluated based on the relevant values of R^2 and Q^2. […]

CN(Cc1cnc2nc(N)nc(N)c2n1)c1ccc(C(=O)N[C@@H](CCC(=O)O)C(=O)O)cc1 [MTX, methotrexate, reference compound]
histopathological assessment of liver tissue (AIA rats [1]; H&E liver sections): congested portal tract and mild fatty changes with lipid drop lets | dyslipidemia (serum lipid profile) (AIA rats [1]; MTX): successfully improved | ALT serum level (AIA rats [1]; methotrexate alone, 42 days): significant increase | GGT serum level (AIA rats [1]; methotrexate alone, 42 days): significant increase | changes in arthritis score (AIA rats [2]): significantly (p<0.001) ameliorated | changes in paw volume (AIA rats [2]): significantly (p<0.001) ameliorated | expression of aP2 in the liver [3]: reduced | mRNA and/or protein expression of LPL, CYP7A1, and SREBP1 in liver [3]: greatly repressed | overexpression of SREBP1 [3]: not modulated | increased mRNA levels of hepatic lipogenesis genes (SREBP1, LXR, FXR) ([3]; real-time PCR): attenuated | changes of key lipogenic enzyme in both gene and protein levels ([3]; real-time PCR and Western blot): ameliorated changes | cartilage and joint destruction of the arthritic joints (radiographs) (AIA rats [4]; MTX, day 42): ameliorated | infiltration of inflammatory cells, synovial hyperplasia (AIA rats [4]; ankle joint sections, H&E): diminished | histological grade of representative ankle joint sections (AIA rats [4]; day 42, H&E, FIG. 2C (MTX; Silybin 200 mg/kg), vehicle-treated AIA grade 2/3): 0 | metabolic network (plasma metabolites) (AIA rats [5]): effectively repair the metabolic network
